Results published in ChEMBL document CHEMBL1153338, “Semi-synthetic and synthetic 1,2,4-trioxaquines and 1,2,4-trioxolaquines: synthesis, preliminary SAR and comparison with acridine endoperoxide conjugates” (Bioorg Med Chem Lett, 2009).
pIC50: −log10 of the molar value.

Columns and labels:
Plasmodium falciparum [1] = test: Antimalarial activity against chloroquine-sensitive Plasmodium falciparum 3D7 infected type A+ human erythrocytes after 24 hrs by [G-3H]hypoxanthine uptake; assay type: functional, organism-based; details: 3D7, 24 h
Plasmodium falciparum [2] = test: Antimalarial activity against chloroquine-resistant Plasmodium falciparum K1 infected type A+ human erythrocytes after 24 hrs by [G-3H]hypoxanthine uptake; assay type: functional, organism-based; details: K1, 24 h

| SMILES | pIC50 (Plasmodium falciparum [1]) | pIC50 (Plasmodium falciparum [2]) |
| --- | --- | --- |
| C[C@H]1[C@@H](CCNCCNc2ccnc3cc(Cl)ccc23)O[C@@H]2O[C@@]3(C)CC[C@H]4[C@H](C)CC[C@@H]1[C@@]24OO3 | 8.27 | 8.06 |
| C[C@H]1[C@@H](CC(=O)NCCCNc2ccnc3cc(Cl)ccc23)O[C@@H]2O[C@@]3(C)CC[C@H]4[C@H](C)CC[C@@H]1[C@@]24OO3 | 8.03 | 8.09 |
| COc1ccc2nc3cc(Cl)ccc3c(NCCNCC[C@H]3O[C@@H]4O[C@@]5(C)CC[C@H]6[C@H](C)CC[C@@H]([C@H]3C)[C@@]46OO5)c2c1 | 7.90 | 7.84 |
| Clc1ccc2c(NCCCNC3CCC4(CC3)OOC3(O4)C4CC5CC(C4)CC3C5)ccnc2c1 (stereo not given) | 7.91 | 8.08 |
| COc1ccc2nc3cc(Cl)ccc3c(NCCCNC3CCC4(CC3)OOC3(O4)C4CC5CC(C4)CC3C5)c2c1 (stereo not given) | 7.90 | 7.95 |
| C[C@H]1[C@@H](CCNCCCCNc2ccnc3cc(Cl)ccc23)O[C@@H]2O[C@@]3(C)CC[C@H]4[C@H](C)CC[C@@H]1[C@@]24OO3 | 7.90 | 7.88 |
| Clc1ccc2c(NCCNC3CCC4(CC3)OOC3(O4)C4CC5CC(C4)CC3C5)ccnc2c1 (stereo not given) | 8.18 | 8.44 |
| COc1ccc2nc3cc(Cl)ccc3c(NCCCNCc3ccc(CO[C@H]4O[C@@H]5O[C@@]6(C)CC[C@H]7[C@H](C)CC[C@@H]([C@H]4C)[C@@]57OO6)cc3)c2c1 | 7.79 | 7.69 |
| C[C@H]1[C@@H](CCNCCCNc2ccnc3cc(Cl)ccc23)O[C@@H]2O[C@@]3(C)CC[C@H]4[C@H](C)CC[C@@H]1[C@@]24OO3 | 7.94 | 7.90 |
| COc1ccc2nc3cc(Cl)ccc3c(N3CCN(C4CCC5(CC4)OOC4(O5)C5CC6CC(C5)CC4C6)CC3)c2c1 (stereo not given) | 7.91 | 8.17 |
| O=C1CCC2(CC1)OOC1(O2)C2CC3CC(C2)CC1C3 (stereo not given) | 8.51 | 8.52 |
| Clc1ccc2c(N3CCN(C4CCC5(CC4)OOC4(O5)C5CC6CC(C5)CC4C6)CC3)ccnc2c1 (stereo not given) | 7.90 | 7.58 |
| COc1ccc2nc3cc(Cl)ccc3c(NCCNCc3ccc(CO[C@H]4O[C@@H]5O[C@@]6(C)CC[C@H]7[C@H](C)CC[C@@H]([C@H]4C)[C@@]57OO6)cc3)c2c1 | 7.91 | 7.71 |
| COc1ccc2nc3cc(Cl)ccc3c(NCCNC3CCC4(CC3)OOC3(O4)C4CC5CC(C4)CC3C5)c2c1 (stereo not given) | 8.01 | 8.14 |
| C[C@H]1[C@@H](CCNCCCCCNc2ccnc3cc(Cl)ccc23)O[C@@H]2O[C@@]3(C)CC[C@H]4[C@H](C)CC[C@@H]1[C@@]24OO3 | 7.62 | 7.79 |
